# Assay results reported in paper PMC4106781, “Efficacy of Selective PDE4D Negative Allosteric Modulators in the Object Retrieval Task in Female Cynomolgus Monkeys (Macaca fascicularis)” (PLoS ONE, 2014).
# How the values were obtained:
# [1] = test system: female Cynomolgus monkeys; assay: Object retrieval (OR) detour task; type: in vivo, Cynomolgus macaques (Macaca fascicularis)
# From the text: A total of n = 8 female Cynomolgus monkeys aged 4–6 years were trained in the OR task and were used for these studies, following a cross-over design. Animals were trained to ensure adequate and stable performance during the dosing studies. Animals were individually housed prior to the initiation of the study. Animals were habituated to the oral gavage method using positive reinforcement techniques for a minimum of 2 weeks prior to the initiation of OR testing to mitigate any adverse impact on behaviour. To ensure accurate dosing each individual was momentarily restrained in a ‘standing’ type primate chair to allow easy and gentle passage of the gavage tube. The oral doses were administered in a dose volume of 1.0 mL/Kg which was followed with 5 mL of purified water to ensure no residual compound formulation remained in the gavage tube. During dose habituation and the study the same study personnel administered the compounds and thus a non-stressful, familiar routine for the animals was achieved.
# The OR task, [55] requires the subject to retrieve a food reward from a clear acrylic box (dimensions = 5×5×5 cm) with one open side which is positioned in front of the subject on a metal holder fixed to the outside of the home cage. The cube is presented to the subject with the open side facing left, right, or toward the monkey in a randomised set list of easy versus difficult trials. Food rewards (raisins or cubes of fruit pieces 1–2 cm^2) were placed on the outer edge, inner edge, line of sight (all easy), or deep within the box (difficult). Each test session consisted of 17 trials, with an initial Easy phase of 3 easy trials followed by a Random phase of 9 trials (4 difficult and 5 easy, presented randomly for each session), followed by a Difficult phase of 4 difficult trials and finally one final Easy Trial (Figure 2A). The final easy trial was included for reward purposes and although the number of attempts was recorded the data were not used for analysis. For successive test sessions, the subject was presented with the trials in an order exactly the reverse of the previous session (previous left side exposure became right side exposure and vice-versa). Individual trials within one OR session were terminated if there were no reaches or successful retrieval of the reward within 2 minutes by the subject. The acrylic box was cleaned between trials to minimize cues which may influence subsequent task performance through easier identification of the cube entrance.
# Animals were habituated to the metal frame prior to introducing the OR cube. During training, the animals were exposed to the OR trials as depicted in Figure 2A for 4 occasions (twice a week- OR trial # T1-T4 – data not shown). Importantly, during this period of training, all animals acquired the rewards even after an incorrect first reach. OR evaluations were then subsequently conducted once per week to discourage learning and thus ensure no performance shift during the pharmacology study (Figure 2B). […]
# Baseline performance was targeted to be an average, stable performance of >50% correct responses in the easy tasks, with less than 40% correct responses in the difficult tasks (Figure 2B). All animals evaluated during this phase met these criteria by the end of the training session, with the exception of one animal, which was a baseline ‘high performer’ on difficult trials (Animal 3939). […]
# [2] = test system: female Cynomolgus monkeys; assay: Clinical observations (retching, emesis, salivation) during OR and PK studies; type: in vivo, Cynomolgus macaques (Macaca fascicularis); conditions: 0.03 mg/kg IM; one animal (5B09), 20 minutes post dose
# Protocol: • Week 1: Animals were habituated to intramuscular injections daily using the ‘rolipram’ vehicle formulation (10% solutol (w/v), 90% saline vehicle in a 0.1 mL/Kg dose volume) Monday through Friday, and a single baseline OR trial evaluation was performed on Wednesday (OR4) (Figure 2A). Animals were dosed with vehicle 30 minutes prior to this behavioural evaluation. • Weeks 2 to 5: Evaluation of rolipram in OR task. Following the stable baseline performance establishment (OR1 – 4), all animals were administered the 3 doses of rolipram (0.003, 0.01 and 0.03 mg/Kg) or vehicle intramuscularly 30 minutes before evaluation on the OR task, every Wednesday through Weeks 2–5 (OR5-8). All animals were dosed with vehicle on the preceding Monday and Tuesday to keep them habituated to the injections and avoid any Pavlovian conditioning to any pro-emetic effects of treatment, although no OR testing was carried out on those days. Treatment was administered at approximately the same time each day and administered via the intramuscular route at a volume of 0.1 mL/kg. […]
# Animals were closely monitored for the duration of the study, and were videotaped during task performance. Body weights were monitored weekly. Clinical observations were recorded prior to dose administration and after the completion of each OR task. […]
# NHPs = conditions: cited from earlier work
# [3] = repeat measures ANOVA, dose group as factor
structure (smiles),measurement,setting,value
"COc1ccc(C2CNC(=O)C2)cc1OC1CCCC1 (stereo not drawn) [rolipram, Rolipram]","mean percent correct first reaches, difficult trials (effect vs vehicle)",[1]; 0.01 mg/kg IM,significance was not observed
same,"mean percent correct first reaches, difficult trials","[1]; 0.03 mg/Kg IM, 30 min before OR, mean ± SEM, vehicle 22±8%",42±8%
same,"mean percent correct first reach, easy level trials (effect of dosing)",[1]; [3],No significant improvement
same,"number of barrier reaches, difficult trials (effect of dosing)",[1]; [3],No significant change
same,"total number of reaches, difficult trials (effect of dosing)",[1]; [3],No significant change
same,adverse reactions,[2],Retching and severe salivation
same,retching,"NHPs; 0.05 mg/kg IM, separate study, ref Maccine, personal communication",all animals retching
same,emesis,NHPs; 0.06 mg/kg,emesis
same,emesis (monkeys affected),NHPs; 0.1 mg/kg,12 of 14
